Results taken from patent US20080318943A1, “Compounds and Uses Thereof - 848” (ASTRAZENECA AB, priority 2007, published 2008).

Target: T1, GABAA2 receptors (α2, β3, γ2 receptor subunits transfected into Sf9 cells) (Homo sapiens, UniProt P18507+P47869)
T1 construct: host or cells: Sf9 cells (membranes)
Test: GABAA2 Binding Method ([3H]-Flunitrazepam displacement)
Conditions: [3H]-Flunitrazepam ~2 nM, α2β3γ2 Sf9 membranes, 1 hr at 4° C.
Description: In some embodiments, the binding test is directed to a subtype of GABAA receptors, such as GABAA1 receptors (i.e., those containing the α1 subunit), GABAA2 receptors (i.e., those containing the α2 subunit), GABAA3 receptors (i.e., those containing the α3 subunit) and GABAA5 receptors (i.e., those containing the α5 subunit).
[^3H]-Flunitrazepam (Cat #NET567): Prepare 10× stock=20 nM, [F} in assay=˜2 nM
1. […] Add 5 ul of 30 uM flumazenil to wells 12 D-E for 50% control wells.
5. Add 25 μl [^3H]-Flunitrazepam (Automation Program 6). Incubate for 1 hr at 4° C.
6. Collect membranes on a cell harvester onto GF/B filter plates (pre-wet with dH2O and wash 5×400 μl/well, with cold assay buffer. (First 3 washes are considered hot; last two are cold.)
Data is analyzed by calculating percent of control, IC50, and Ki in an XLfit template. The following formula is used in the templates: […]

T1 sequence (P47869 29-451): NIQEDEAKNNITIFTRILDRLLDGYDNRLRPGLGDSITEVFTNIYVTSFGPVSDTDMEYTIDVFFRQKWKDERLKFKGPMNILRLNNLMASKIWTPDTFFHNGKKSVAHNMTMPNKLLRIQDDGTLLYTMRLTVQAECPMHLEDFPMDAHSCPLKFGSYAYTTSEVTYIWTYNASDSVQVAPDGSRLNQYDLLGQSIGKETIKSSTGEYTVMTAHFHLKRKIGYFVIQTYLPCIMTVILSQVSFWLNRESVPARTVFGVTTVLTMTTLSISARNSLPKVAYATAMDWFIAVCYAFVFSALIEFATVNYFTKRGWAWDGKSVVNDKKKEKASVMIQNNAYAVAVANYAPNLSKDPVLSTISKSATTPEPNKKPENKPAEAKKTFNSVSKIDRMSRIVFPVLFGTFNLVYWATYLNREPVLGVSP
T1 sequence (P28472 26-473 partner): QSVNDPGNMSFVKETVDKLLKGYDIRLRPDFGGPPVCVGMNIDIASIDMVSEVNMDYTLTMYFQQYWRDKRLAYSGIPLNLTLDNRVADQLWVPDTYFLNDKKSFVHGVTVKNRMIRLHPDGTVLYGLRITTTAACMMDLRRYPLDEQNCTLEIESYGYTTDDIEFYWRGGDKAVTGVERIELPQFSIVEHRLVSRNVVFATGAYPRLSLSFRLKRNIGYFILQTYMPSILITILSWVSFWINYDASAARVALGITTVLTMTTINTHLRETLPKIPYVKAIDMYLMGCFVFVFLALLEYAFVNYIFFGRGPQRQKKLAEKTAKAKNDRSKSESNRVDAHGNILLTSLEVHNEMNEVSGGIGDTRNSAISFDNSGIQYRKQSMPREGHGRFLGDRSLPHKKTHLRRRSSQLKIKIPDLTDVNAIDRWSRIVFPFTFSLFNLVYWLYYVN
T1 sequence (P18507 40-475): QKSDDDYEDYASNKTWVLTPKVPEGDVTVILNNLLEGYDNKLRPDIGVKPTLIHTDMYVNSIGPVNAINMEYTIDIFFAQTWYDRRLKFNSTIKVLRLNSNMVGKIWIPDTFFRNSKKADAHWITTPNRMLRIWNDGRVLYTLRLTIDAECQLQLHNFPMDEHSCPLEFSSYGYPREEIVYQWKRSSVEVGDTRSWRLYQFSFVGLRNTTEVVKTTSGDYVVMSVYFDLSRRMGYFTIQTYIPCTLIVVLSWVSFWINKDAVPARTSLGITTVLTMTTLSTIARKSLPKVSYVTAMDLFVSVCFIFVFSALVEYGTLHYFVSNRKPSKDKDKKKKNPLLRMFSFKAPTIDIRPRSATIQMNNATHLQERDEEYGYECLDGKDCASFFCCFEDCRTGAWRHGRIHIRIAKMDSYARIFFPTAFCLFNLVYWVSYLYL

Ki | Structure (SMILES)
75.7 nM | CCCN1Cc2nc3c(-c4c(C#N)cccc4OC)cccc3c(N)c2C1=O [2-(9-amino-1-oxo-2-propyl-2,3-dihydro-1H-pyrrolo[3,4-b]quinolin-5-yl)-3-methoxybenzonitrile]
64.3 nM | CN1Cc2nc3c(-c4ccccc4C#N)cccc3c(N)c2C1=O [2-(9-amino-2-methyl-1-oxo-2,3-dihydro-1H-pyrrolo[3,4-b]quinolin-5-yl)benzonitrile]
52.1 nM | CCCN1Cc2nc3c(-c4ccc(C#N)cc4)cccc3c(N)c2C1=O [4-(9-amino-1-oxo-2-propyl-2,3-dihydro-1H-pyrrolo[3,4-b]quinolin-5-yl)benzonitrile]
74.5 nM | CCCN1Cc2nc3c(-c4ccc(F)c(C#N)c4)cccc3c(N)c2C1=O [5-(9-amino-1-oxo-2-propyl-2,3-dihydro-1H-pyrrolo[3,4-b]quinolin-5-yl)-2-fluorobenzonitrile]
46.2 nM | CCC(C)N1Cc2nc3c(-c4c(F)cccc4OC)cccc3c(N)c2C1=O (stereo not shown) [9-amino-2-(2-butyl)-5-(2-fluoro-6-methoxyphenyl)-2,3-dihydro-1H-pyrrolo[3,4-b]quinolin-1-one]
27.8 nM | COc1cccc(F)c1-c1cccc2c(N)c3c(nc12)CN(Cc1cccc(Cl)c1)C3=O [9-amino-2-(3-chlorobenzyl)-5-(2-fluoro-6-methoxyphenyl)-2,3-dihydro-1H-pyrrolo[3,4-b]quinolin-1-one]
70.6 nM | COc1ccc(CN2Cc3nc4c(-c5cnn(C)c5)cccc4c(N)c3C2=O)cc1 [9-amino-2-(4-methoxybenzyl)-5-(1-methyl-1H-pyrazol-4-yl)-2,3-dihydro-1H-pyrrolo[3,4-b]quinolin-1-one]
34.1 nM | COc1ccc(CN2Cc3nc4c(-c5ccccc5C(F)(F)F)cccc4c(N)c3C2=O)cc1 [9-amino-2-(4-methoxybenzyl)-5-(2-(trifluoromethyl)phenyl)-2,3-dihydro-1H-pyrrolo[3,4-b]quinolin-1-one]
60.5 nM | COc1ccc(CN2Cc3nc4c(-c5ccc(C)nc5)cccc4c(N)c3C2=O)cc1 [9-amino-2-(4-methoxybenzyl)-5-(6-methylpyridin-3-yl)-2,3-dihydro-1H-pyrrolo[3,4-b]quinolin-1-one]
90.5 nM | CCCCN1Cc2nc3c(-c4ccc(C)nc4)cccc3c(N)c2C1=O [9-amino-2-butyl-5-(6-methylpyridin-3-yl)-2,3-dihydro-1H-pyrrolo[3,4-b]quinolin-1-one]
39.3 nM | Nc1c2c(nc3c(-c4cc(F)cc(F)c4)cccc13)CN(C1CCC1)C2=O [9-amino-2-cyclobutyl-5-(3,5-difluorophenyl)-2,3-dihydro-1H-pyrrolo[3,4-b]quinolin-1-one]
58.4 nM | COc1ccc(-c2cccc3c(N)c4c(nc23)CN(C2CC2)C4=O)c(OC)c1 [9-amino-2-cyclopropyl-5-(2,4-dimethoxyphenyl)-2,3-dihydro-1H-pyrrolo[3,4-b]quinolin-1-one]
78.2 nM | COc1ncc(-c2cccc3c(N)c4c(nc23)CN(C2CC2)C4=O)c(OC)n1 [9-amino-2-cyclopropyl-5-(2,4-dimethoxypyrimidin-5-yl)-2,3-dihydro-1H-pyrrolo[3,4-b]quinolin-1-one]
36.8 nM | COc1cc(F)c(-c2cccc3c(N)c4c(nc23)CN(C2CC2)C4=O)cc1F [9-amino-2-cyclopropyl-5-(2,5-difluoro-4-methoxyphenyl)-2,3-dihydro-1H-pyrrolo[3,4-b]quinolin-1-one]
36.7 nM | COc1ccc(OC)c(-c2c(SC)ccc3c(N)c4c(nc23)CN(C2CC2)C4=O)c1 [9-amino-2-cyclopropyl-5-(2,5-dimethoxyphenyl)-6-(methylthio)-2,3-dihydro-1H-pyrrolo[3,4-b]quinolin-1-one]
54.1 nM | COc1ccccc1-c1cccc2c(N)c3c(nc12)CN(C1CC1)C3=O [9-amino-2-cyclopropyl-5-(2-methoxyphenyl)-2,3-dihydro-1H-pyrrolo[3,4-b]quinolin-1-one]
83.1 nM | COc1cc(F)ccc1-c1cccc2c(N)c3c(nc12)CN(C1CC1)C3=O [9-amino-2-cyclopropyl-5-(4-fluoro-2-methoxyphenyl)-2,3-dihydro-1H-pyrrolo[3,4-b]quinolin-1-one]
73.4 nM | COc1ccc(F)cc1-c1cccc2c(N)c3c(nc12)CN(C1CC1)C3=O [9-amino-2-cyclopropyl-5-(5-fluoro-2-methoxyphenyl)-2,3-dihydro-1H-pyrrolo[3,4-b]quinolin-1-one]
64.7 nM | Nc1c2c(nc3c(-c4cccnc4)cccc13)CN(C1CC1)C2=O [9-amino-2-cyclopropyl-5-(pyridin-3-yl)-2,3-dihydro-1H-pyrrolo[3,4-b]quinolin-1-one]
34.3 nM | CCN1Cc2nc3c(-c4cc(F)cc(OC)c4)cccc3c(N)c2C1=O [9-amino-2-ethyl-5-(3-fluoro-5-methoxyphenyl)-2,3-dihydro-1H-pyrrolo[3,4-b]quinolin-1-one]

Ki | Structure (SMILES)
77.6 nM | CCN1Cc2nc3c(-c4ccc(C)nc4)cccc3c(N)c2C1=O [9-amino-2-ethyl-5-(6-methylpyridin-3-yl)-2,3-dihydro-1H-pyrrolo[3,4-b]quinolin-1-one]
64.9 nM | Cc1ccncc1-c1cccc2c(N)c3c(nc12)CN(C)C3=O [9-amino-2-methyl-5-(4-methylpyridin-3-yl)-2,3-dihydro-1H-pyrrolo[3,4-b]quinolin-1-one]
99.7 nM | CCCN1Cc2nc3c(-c4cnn(C)c4)cccc3c(N)c2C1=O [9-amino-5-(1-methyl-1H-pyrazol-4-yl)-2-propyl-2,3-dihydro-1H-pyrrolo[3,4-b]quinolin-1-one]
98.2 nM | COc1ccc(CN2Cc3nc4c(-c5cccc(F)c5F)cccc4c(N)c3C2=O)cc1 [9-amino-5-(2,3-difluorophenyl)-2-(4-methoxybenzyl)-2,3-dihydro-1H-pyrrolo[3,4-b]quinolin-1-one]
81.9 nM | CCN1Cc2nc3c(-c4cccc(OC)c4OC)cccc3c(N)c2C1=O [9-amino-5-(2,3-dimethoxyphenyl)-2-ethyl-2,3-dihydro-1H-pyrrolo[3,4-b]quinolin-1-one]
99.1 nM | CCN1Cc2nc3c(-c4ccc(OC)cc4OC)cccc3c(N)c2C1=O [9-amino-5-(2,4-dimethoxyphenyl)-2-ethyl-2,3-dihydro-1H-pyrrolo[3,4-b]quinolin-1-one]
79 nM | COc1ccc(-c2cccc3c(N)c4c(nc23)CN(C)C4=O)c(OC)c1 [9-amino-5-(2,4-dimethoxyphenyl)-2-methyl-2,3-dihydro-1H-pyrrolo[3,4-b]quinolin-1-one]
70.2 nM | COc1ccc(CN2Cc3nc4c(-c5cc(OC)ccc5OC)cccc4c(N)c3C2=O)cc1 [9-amino-5-(2,5-dimethoxyphenyl)-2-(4-methoxybenzyl)-2,3-dihydro-1H-pyrrolo[3,4-b]quinolin-1-one]
21.6 nM | CCCN1Cc2nc3c(-c4ccc(Cl)nc4Cl)cccc3c(N)c2C1=O [9-amino-5-(2,6-dichloropyridin-3-yl)-2-propyl-2,3-dihydro-1H-pyrrolo[3,4-b]quinolin-1-one]
82.5 nM | CCN1Cc2nc3c(-c4c(OC)cccc4OC)cccc3c(N)c2C1=O [9-amino-5-(2,6-dimethoxyphenyl)-2-ethyl-2,3-dihydro-1H-pyrrolo[3,4-b]quinolin-1-one]
77.8 nM | COc1ccc(-c2cccc3c(N)c4c(nc23)CN(C)C4=O)c(F)c1 [9-amino-5-(2-fluoro-4-methoxyphenyl)-2-methyl-2,3-dihydro-1H-pyrrolo[3,4-b]quinolin-1-one]
55.8 nM | COc1ccc(F)c(-c2cccc3c(N)c4c(nc23)CN(C)C4=O)c1 [9-amino-5-(2-fluoro-5-methoxyphenyl)-2-methyl-2,3-dihydro-1H-pyrrolo[3,4-b]quinolin-1-one]
51.1 nM | CCCN1Cc2nc3c(-c4cc(-c5ccncc5)ccc4OC)cccc3c(N)c2C1=O [9-amino-5-(2-methoxy-5-(pyridin-4-yl)phenyl)-2-propyl-2,3-dihydro-1H-pyrrolo[3,4-b]quinolin-1-one]
55.1 nM | COc1ccc(CN2Cc3nc4c(-c5cc(C)ccc5OC)cccc4c(N)c3C2=O)cc1 [9-amino-5-(2-methoxy-5-methylphenyl)-2-(4-methoxybenzyl)-2,3-dihydro-1H-pyrrolo[3,4-b]quinolin-1-one]
70.2 nM | COc1ccc(C)cc1-c1cccc2c(N)c3c(nc12)CN(C)C3=O [9-amino-5-(2-methoxy-5-methylphenyl)-2-methyl-2,3-dihydro-1H-pyrrolo[3,4-b]quinolin-1-one]
75.8 nM | CCCN1Cc2nc3c(-c4cnc(OC)nc4)cccc3c(N)c2C1=O [9-amino-5-(2-methoxypyrimidin-5-yl)-2-propyl-2,3-dihydro-1H-pyrrolo[3,4-b]quinolin-1-one]
88 nM | COc1ccc(-c2cccc3c(N)c4c(nc23)CN(C)C4=O)cc1OC [9-amino-5-(3,4-dimethoxyphenyl)-2-methyl-2,3-dihydro-1H-pyrrolo[3,4-b]quinolin-1-one]
27.2 nM | CCN1Cc2nc3c(-c4cc(OC)cc(OC)c4)cccc3c(N)c2C1=O [9-amino-5-(3,5-dimethoxyphenyl)-2-ethyl-2,3-dihydro-1H-pyrrolo[3,4-b]quinolin-1-one]
74.1 nM | COc1cc(OC)cc(-c2cccc3c(N)c4c(nc23)CN(C)C4=O)c1 [9-amino-5-(3,5-dimethoxyphenyl)-2-methyl-2,3-dihydro-1H-pyrrolo[3,4-b]quinolin-1-one]

Structure (SMILES) | Ki
CCN1Cc2nc3c(-c4cccc(OC)c4F)c(F)ccc3c(N)c2C1=O [9-amino-2-ethyl-6-fluoro-5-(2-fluoro-3-methoxyphenyl)-2,3-dihydro-1H-pyrrolo[3,4-b]quinolin-1-one] | 5.29 nM
